Literature values in patent US20170014414A1, “PHARMACEUTICAL COMPOSITION” (ratiopharm GmbH, priority 2014, published 2017).

Conditions: teaching of WO 2012/088033

SMILES: CC(=O)Nc1cccc(-n2c(=O)n(C3CC3)c(=O)c3c(Nc4ccc(I)cc4F)n(C)c(=O)c(C)c32)c1.C[S+](C)[O-] [trametinib DMSO solvate]
- stability of the solvate on exposure to moisture (during the formulation process): revert to an insoluble desolvated form when exposed to moisture
- photostability: can suffer from photo-instability

SMILES: CC(=O)Nc1cccc(-n2c(=O)n(C3CC3)c(=O)c3c(Nc4ccc(I)cc4F)n(C)c(=O)c(C)c32)c1 [trametinib in its non-solvated form, N-{3-[3-cyclopropyl-5-(2-fluoro-4-iodophenylamino)-6,8-dimethyl-2,4,7-trioxo-3,4,6,7-tetrahydro-2H-pyrido[4,3-d]pyrimidin-1-yl]phenyl}acetamide]
- solubility compared with trametinib DMSO solvate: much less soluble than trametinib DMSO solvate
